These results are taken from US20140051635A1, “COMBINATION THERAPY FOR TREATMENT OF CANCER” (UNIVERSITY OF SOUTH ALABAMA, priority 2011, published 2014).

Where two headings read alike, the source gives them in different places.

For series [1], the system named is advanced or metastatic solid tumors. The conditions noted are these: human, in vivo.
Excerpt: Eligible patients include those with solid tumors that progressed or were stable as best response on at least one previous therapy. […] Further criteria included: female and male patients; age≧19 years; ECOG PS≦2; adequate bone marrow, liver and heart function; and signed written-informed consent.
Serum and/or tissue samples, where appropriate, were collected for correlative studies.
Outcome evaluation for primary endpoints included: type, incidence, severity, timing, seriousness, and relatedness of adverse events, and laboratory abnormalities; and objective response rate. Outcome evaluation for secondary endpoints included: progression-free survival (PFS); and expression of tissue SPARC protein. Statistical Analysis included the standard 3+3 design. Patients were accrued to each dose level in cohorts of up to 3-6. Escalation was continued until a dose limiting toxicity (DLT) was observed or the highest dose-level was reached. The best response, including complete response (CR), partial response (PR), stable disease (SD), or progression of disease (PD), for each patient was determined. Descriptive statistics were used to summarize all patient characteristics, treatment administration and compliance, and protein biomarkers. Safety data were determined for all patients receiving at least 1 dose of study treatment.
The test system of a further series is AML. The settings on record: 27 patients assigned to azacitidine; cited from earlier work.
For series [2] the following is noted: cited from earlier work.
The conditions of series [3]: mice; cited from earlier work.
For series [4] the following is noted: rats; cited from earlier work.
Another series deals with higher-risk MDS. The settings on record: cited from earlier work.
For series [5] the following is noted: parenteral, administered weekly; cited from earlier work.
A further series concerns MDS. The settings on record: MDS patients; cited from earlier work.
Series [6] deals with SPARC expression in colon cancer cell lines and primary colon cancers. The conditions noted are these: colon cancer cell lines and primary colon cancers with SPARC promoter hypermethylation; cited from earlier work.
Series [7] relates to breast cancer, patients pre-treated with doxorubicin. The settings on record: cited from earlier work.

Regarding `Nc1ncn([C@@H]2O[C@H](CO)[C@@H](O)[C@H]2O)c(=O)n1` [azacitidine], the “maximum tolerated dose of azacitadine in this regimen” value in series [1] was found to be 75 mg/m^2. For the same compound, the median survival time with AML was 19.3 months. Also, the “systemic IV clearance” value in [2] (75 mg/m^2 IV) is 147 L/h. Moreover, in series [2] (75 mg/m^2 SC vs IV), the “bioavailability for the SC dose” value was around 89%. The tolerability entry in series [2] (75 mg/m^2 single SC injection or IV infusion over 10 minutes) is listed as “generally well-tolerated”; with higher-risk MDS (in vivo), “well tolerated”. Also, the “embryotoxicity and reproductive performance” value was “embryotoxic and reduced the reproductive performance” in series [3]; “embryotoxic and reduced the reproductive performance” in [4]. In addition, the median overall survival in the series with higher-risk MDS (75 mg/m^2/day x 7 days in 28 day cycles, N=179) is 24.4 months. Moreover, in the series on higher-risk MDS (azacitidine arm), the two-year survival is 51%. Further, the maximum tolerated doses result in series [5] was “up to 500 mg/m^2”. Further, the partial remission result in the series on MDS is “rare”.

As for `Nc1ncn([C@H]2C[C@H](O)[C@@H](CO)O2)c(=O)n1` [5Aza-dC], in series [6], the SPARC expression result was “able to upregulate SPARC expression in most cases”.

Turning to `CC(=O)O[C@@]12CO[C@@H]1C[C@H](O)[C@@]1(C)C(=O)[C@H](O)C3=C(C)[C@@H](OC(=O)[C@H](O)[C@@H](NC(=O)OC(C)(C)C)c4ccccc4)C[C@@](O)([C@@H](OC(=O)c4ccccc4)[C@H]21)C3(C)C` [docetaxel], in series [7], the median overall survival was 11.4 months and the “median time to disease progression” value is reported as 4.4 months.
